≈ marks a conversion by molar mass, not a printed value.
Assays:
[1] = oxypurinol solubility with and without metformin; format: physicochemical
From the text: The term “organic base” as used herein refers to the organic base may be (a) a Class 1 base with a pKa1 between about 7 to 13 including but not limited to L-arginine, D-arginine, choline, L-lysine, D-lysine, and caffeine. In an alternative embodiment, the organic base is a biguanide (U.S. Pat. No. 9,480,663) or biguanidine such as metformin, phenformin, buformin or a salts thereof. It is noted that metformin has multiple beneficial effects in the context of compositions and methods described herein. First, it can act as a solubilizing agent for oxypurinol to increase oral bioavailablity. Secondarily, it can act as an alkalinizing agent. Thirdly, metformin here can act as a uric acid solubilizing agent. […] The gliflozin family of SGLT2 inhibitors are also basic and can serve as an organic base in accord with the teachings herein.

[2] = test system: mouse model of polycystic kidney disease (Pkd1RC/RC); experiment: uricase inhibition by oxonic acid in mouse model of polycystic kidney disease (FIG. 6B); format: in vivo
Method: (§1) FIG. 6: provides data showing that uricase inhibition by oxonic acid (OXO) and commensurate increased uric acid is associated with increased total kidney to body weight ratio (2K/BWT) in a rat model of polycystic kidney disease (PCK) and in a mouse model of polycystic kidney disease (Pkd1RC/RC). Rodent models of polycystic kidney disease were treated with a uricase enzyme inhibitor—oxonic acid (OXO)—to decrease the metabolism of uric acid to allantoin, thereby chronically increasing circulating serum uric acid concentration. […] Increased serum uric acid is associated with structural and functional changes in kidney function. Increased creatinine is associated with decreased filtering capacity of kidneys. disease.

[3] = test system: rat model of polycystic kidney disease (PCK); experiment: uricase inhibition by oxonic acid in rat model of polycystic kidney disease (FIG. 6A); format: in vivo
Method: as §1

[4] = test system: rodent model of polycystic kidney disease; experiment: uricase inhibition by oxonic acid, kidney function in rodent model of polycystic kidney disease (FIG. 7); format: in vivo
[5] = test system: rodent model of polycystic kidney disease—mouse RC/RC; experiment: oxonic acid exposure with or without OXY+L in mouse RC/RC, kidney size (FIG. 9); format: in vivo; conditions: oxonic acid (OXO) exposure alone
From the text: FIG. 9: is a graph showing that in a rodent model of polycystic kidney disease—mouse RC/RC-oxonic acid (OXO) exposure increased kidney size.

[6] = 8 weeks of treatment with oxonic acid, compared to untreated animals
[7] = Pkd1RC/RC mouse, after 70 days exposure to oxonic acid, P<0.05
[8] = PCK rat, after 70 days exposure to oxonic acid, P<0.05

SMILES: O=c1[nH]c(=O)c2c[nH]nc2[nH]1 [oxypurinol]
- solubility ([1]; 1:01 to 1:10 ratio of oxypurinol to metformin): ≥ 16800 µg/mL
- solubility ([1]; without metformin (starting value)): 200 µg/mL (≈ 1310 µM)

SMILES: O=C(O)c1nc(=O)[nH]c(=O)[nH]1 [oxonic acid]
- total kidney volume [2, 6]: increased significantly
- serum uric acid ([2]; Pkd1RC/RC mouse, after 70 days exposure to oxonic acid): increased
- cyst size [2, 7]: increased
- serum creatinine [2, 7]: increased
- total kidney to body weight ratio (2K/BWT) [2, 7]: increase
- total kidney volume [3, 6]: increased significantly
- serum uric acid ([3]; PCK rat, after 70 days exposure to oxonic acid): increased
- cyst size [3, 8]: increased
- total kidney to body weight ratio (2K/BWT) [3, 8]: increase
- serum creatinine ([3]; PCK rat, after 70 days exposure to oxonic acid, P<0.07): increased
- creatinine in serum (kidney function) [4]: increased
- kidney size [5]: increased

From US20250052754A1, “COMPOSITIONS AND METHODS FOR DIAGNOSIS, TREATMENT OF AND PREVENTION OF KIDNEY DISEASE” (XORTX THERAPEUTICS, INC., priority 2021, published 2025)
